Data reported in the supplement of paper PMC10307832.

Columns and labels:
Experiment in all cases: relative viability (nuclei count vs DMSO), 5 days (fraction); higher = more cells survive
[1] = compound: O=C(O)c1ccc2c(c1)nc(Nc1cccc(Cl)c1)c1ccncc12 [Silmitasertib] + Cc1nc(NC(=O)N2CCC[C@H]2C(N)=O)sc1-c1ccnc(C(C)(C)C(F)(F)F)c1 [Alpelisib] (partner 2 µM)
How it was run: (§1)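 Lung cancer cell lines were pin-tool dosed in 1536-well plates on the day after seeding, with either a lone drug or a fixed anchor-drug dose plus five library-drug doses (not always all listed) in √10 steps. Nuclei were counted on 4× images after 5 days. Relative viability is the ratio of treated-well to vehicle-well nuclei counts, with each value a median of duplicate plates.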

[2] = compound: O=C(O)c1ccc2c(c1)nc(Nc1cccc(Cl)c1)c1ccncc12 [Silmitasertib] + C[C@@H](Oc1cc(-c2cnn(C3CCNCC3)c2)cnc1N)c1c(Cl)ccc(F)c1Cl [Crizotinib] (partner 1 µM)
How it was run: as §1

[3] = compound: O=C(O)c1ccc2c(c1)nc(Nc1cccc(Cl)c1)c1ccncc12 [Silmitasertib] + COc1cc2c(Oc3ccc(NC(=O)C4(C(=O)Nc5ccc(F)cc5)CC4)cc3F)ccnc2cc1OCCCN1CCOCC1 [Foretinib] (partner 0.25 µM)
How it was run: as §1

[4] = compound: O=C(O)c1ccc2c(c1)nc(Nc1cccc(Cl)c1)c1ccncc12 [Silmitasertib] + N=C(N)NC(=N)NCCc1ccccc1 [Phenformin] (partner 250 µM)
How it was run: as §1

Silmitasertib + OSI-027 = compound: O=C(O)c1ccc2c(c1)nc(Nc1cccc(Cl)c1)c1ccncc12 [Silmitasertib] + COc1cccc2cc(-c3nc([C@H]4CC[C@H](C(=O)O)CC4)n4ncnc(N)c34)[nH]c12 [OSI-027] (partner 0.5 µM)
How it was run: as §1

Cell Line | relative viability ([1]; first compound 0.04 µM) | relative viability ([1]; first compound 0.4 µM) | relative viability ([1]; first compound 1.265 µM) | relative viability ([1]; first compound 4 µM) | relative viability ([2]; first compound 0.04 µM) | relative viability ([2]; first compound 0.4 µM) | relative viability ([2]; first compound 1.265 µM) | relative viability ([2]; first compound 4 µM) | relative viability ([3]; first compound 0.04 µM) | relative viability ([3]; first compound 0.4 µM) | relative viability ([3]; first compound 1.265 µM) | relative viability ([3]; first compound 4 µM) | relative viability ([4]; first compound 0.04 µM) | relative viability ([4]; first compound 0.4 µM) | relative viability ([4]; first compound 1.265 µM) | relative viability ([4]; first compound 4 µM) | relative viability (Silmitasertib + OSI-027; first compound 0.04 µM) | relative viability (Silmitasertib + OSI-027; first compound 0.4 µM) | relative viability (Silmitasertib + OSI-027; first compound 1.265 µM) | relative viability (Silmitasertib + OSI-027; first compound 4 µM)
201T | 0.908 | 1 | 1.01 | 1.13 | 0.999 | 0.991 | 1.07 | 1.18 | 1.2 | 1.19 | 1.09 | 1.21 | 0.421 | 0.426 | 0.469 | 0.449 | 0.821 | 0.631 | 0.719 | 0.462
A549 | 1.02 | 0.918 | 0.828 | 0.869 | 0.819 | 0.677 | 0.777 | 0.748 | 0.961 | 0.819 | 0.952 | 0.858 | 0.237 | 0.131 | 0.121 | 0.161 | – | – | – | –
A-427 | 1.07 | – | 1.28 | 1.05 | 0.888 | – | 0.805 | 0.63 | 1.1 | – | 1.13 | 0.869 | 0.365 | – | 0.297 | 0.156 | 0.617 | – | 0.425 | 0.192
ABC-1 | 1.11 | 0.832 | 0.546 | 0.381 | 1.27 | 1 | 0.516 | 0.445 | 1.07 | 0.83 | 0.457 | 0.367 | 0.298 | 0.214 | 0.179 | 0.201 | 0.52 | 0.37 | 0.221 | 0.226
BEN | 1.02 | 0.783 | 0.896 | 0.956 | 0.974 | 0.827 | 0.739 | 0.846 | 0.858 | – | 0.657 | 0.467 | 0.275 | – | 0.281 | 0.258 | 0.317 | – | 0.336 | 0.269
CAL-12T | 1.38 | 1.21 | 0.802 | 0.551 | 0.685 | 0.423 | 0.542 | 0.318 | 1.12 | 1.02 | 1.06 | 0.478 | 0.67 | 0.488 | 0.352 | 0.296 | 0.839 | 0.542 | 0.29 | 0.23
COR-L23 | 0.843 | 0.788 | 0.759 | 0.586 | 0.665 | 0.67 | 0.727 | 0.629 | 1.09 | 0.794 | 0.951 | 1.16 | 0.51 | 0.372 | 0.483 | 0.314 | 0.786 | 0.496 | 0.828 | 0.419
COR-L 105 | 1.16 | 1.06 | 0.803 | 0.664 | 0.881 | 0.679 | 0.702 | 0.501 | 1.44 | 0.881 | 0.791 | 0.562 | 0.476 | 0.458 | 0.408 | 0.307 | 0.767 | 0.617 | 0.58 | 0.348
ChaGo-K-1 | – | – | – | – | 1.35 | 1 | 1.07 | 0.931 | 0.99 | 0.731 | 0.876 | 0.971 | 0.532 | 0.349 | 0.446 | 0.319 | 0.602 | 0.456 | 0.567 | 0.353
EKVX | 1.01 | 0.628 | 0.739 | 0.656 | 1.15 | 0.819 | 0.653 | 0.895 | 0.783 | 0.435 | 0.408 | 0.411 | 0.22 | 0.167 | 0.185 | 0.203 | 0.812 | 0.533 | 0.605 | 0.662
EMC-BAC-2 | 0.743 | 0.627 | 0.558 | 0.547 | 0.847 | 0.701 | 0.653 | 0.721 | 1.04 | 0.861 | 0.577 | 0.411 | 0.578 | 0.493 | 0.381 | 0.301 | 0.395 | 0.348 | 0.276 | 0.249
EPLC-272H | 1.04 | – | 0.632 | 0.763 | 0.992 | – | 0.469 | 0.407 | 0.687 | – | 0.321 | 0.219 | 0.399 | – | 0.23 | 0.088 | 0.301 | – | 0.24 | 0.178
H3255 | 0.811 | 0.786 | 0.657 | 0.549 | 0.888 | 0.701 | 0.883 | 0.864 | 1.02 | 0.549 | 0.746 | 0.97 | 0.355 | 0.353 | 0.31 | 0.359 | 0.73 | 0.591 | 0.545 | 0.613
HARA | 1.08 | 0.64 | 0.565 | 0.545 | 1.1 | 0.757 | 0.621 | 0.88 | 0.87 | 0.627 | 0.473 | 0.734 | 0.439 | 0.253 | 0.448 | 0.162 | 0.715 | 0.203 | 0.432 | 0.141
HCC-15 | 0.972 | 0.683 | 0.618 | 0.45 | 0.804 | 0.603 | 0.71 | 0.575 | 1.03 | 0.86 | 0.772 | 0.761 | 0.541 | 0.39 | 0.398 | 0.25 | 0.761 | 0.552 | 0.437 | 0.24
HCC-44 | 0.767 | 0.761 | 0.769 | 0.741 | 0.729 | 0.697 | 0.839 | 0.771 | – | – | – | – | 0.267 | 0.234 | 0.117 | 0.12 | 0.524 | 0.606 | 0.508 | 0.29
HCC-78 | 0.417 | 0.243 | 0.268 | 0.319 | 0.379 | 0.31 | 0.298 | 0.323 | 0.503 | 0.523 | 0.457 | 0.621 | 0.678 | 0.517 | 0.707 | 0.594 | 0.437 | 0.346 | 0.369 | 0.335
